Test results taken from publication PMC7259638, “Characterization of the intestinal absorption of morroniside from Cornus officinalis Sieb. et Zucc via a Caco-2 cell monolayer model” (PLoS ONE, 2020).

Columns and labels:
Assay in all cases: Effects of influx/efflux transporter inhibitors and CO on morroniside transport in Caco-2 cell monolayers
Type in all cases: in vitro ADME, human
[1] = system: BCRP; settings: human, 25 μM morroniside
Procedure: (§1) An initial stock solution of morroniside in methanol was prepared. The stock solution was then diluted with HBSS (pH = 7.4) and the final concentration of methanol in HBSS remained at 0.5%. […] Caco-2 cells were seeded at a density of 5 × 10^4 cells/cm^2 in a 12-well plate. The transepithelial electrical resistance (TEER) value was measured with a Millipore ERS voltameter (Burlington, MA, USA) in order to evaluate and determine monolayer integrity. The monolayers were ready for experiments 19 to 22 days after seeding.
(§2) During incubation, the culture medium was refreshed every other day. The culture medium was discarded, and 500 μL of HBSS was added to each well and incubated for 20 min at 37 °C. Afterward, each well was rinsed two times with HBSS at 37 °C. Three concentrations of morroniside (5, 25 and 100 μM) were added to either the apical (AP, 0.5 mL) or basolateral side (BL, 1.5 mL), wheras the receiving chamber contained the corresponding volume of blank HBSS medium (pH = 7.4). Incubation was performed at 37 °C for 180 min, with shaking at 50 rpm. To assess drug transport from the AP to BL side, after incubation for 5, 15, 30, 45, 60, 90, 120 or 180 min, 50 μL of the solution from the BL or AP side was collected, and replaced with an equal volume of HBSS. To study the effect of pH on morroniside (5, 25 and 100 μM) transport, the experiments were performed in HBSS, which was adjusted to pH 6.0 or pH 7.4 on the AP side depending on the experiment, and to pH 7.4 on the BL side at 37 °C.
(§3) Efflux and influx transporters were investigated for their effects on the transport flux of morroniside. Several ATP-binding cassette transporter inhibitors, including one p-glycoprotein (P-gp) inhibitor (100μM verapamil); one multidrug resistance- related protein (MRP) inhibitor (100 μM, MK571), one multidrug resistance- related protein 3 (MRP3, the main BL MRP) inhibitor ([…]) and one multidrug resistance- related protein 2 (MRP2, the main AP MRP) inhibitor (200μM indomethacin); and one breast cancer resistance protein (BCRP) inhibitor (25μM apigenin) were used to determine the transporters involved in the efflux transport of morroniside. The inhibition of the influx transport of morroniside transport across the Caco-2 cell monolayer was investigated by the addition of 50 μM sodium vanadate and cimetidine to evaluate the selectivity of Na/K-ATPase. The pH and temperature conditions of this assay were 7.4 and 37 °C, respectively.
(§4) UPLC-MS/MS data acquisition was performed using Analyst 1.5.2 and MultiQuant 2.1.1 software (Applied Biosystems). All data are shown as the mean ± standard deviation, n = 3. The data were analyzed using SPSS 20.0. In the Caco-2 cell model, the rate of transport was obtained from the amount transported versus the time curve using linear regression. The permeability coefficient of each compound was calculated using the following equation: Papp = (dQ/dt)/(A·C0).
(§5) where, dQ/dt is the rate of drug transport, C0 is the initial concentration of the compound in the donor chamber and A represents the surface area of the cell monolayer. The efflux ratio P was determined by calculating the ratio of Papp in the secretory (BA) direction divided by that in the absorptive (AB) direction, according to the following equation: P=PappBA/PappAB

[2] = system: Caco-2 cell monolayers; settings: for PappAB (mean): AP to BL; for PappBA (mean): BL to AP; for PappAB / PappBA: pH 7.4, 37 °C
Procedure: as §1, §2, §3, §4, §5

[3] = system: MRP3; settings: human, 25 μM morroniside
Procedure: as §1, §2, §3, §4, §5

[4] = system: MRP; settings: human, Caco-2, pH 7.4, with MK571 100 μM, 25 μM morroniside
Procedure: as §1, §2, §3, §4, §5

[5] = system: Na+/K+ pump (Na/K-ATPase); settings: human, Caco-2, pH 7.4, with sodium vanadate 50 μM, with 50 μM sodium vanadate (Na+/K+ pump); read-out: P (efflux ratio PappBA/PappAB)
Procedure: as §1, §2, §3, §4, §5

[6] = system: OATs; settings: human, Caco-2, pH 7.4, with cimetidine 50 μM, with 50 μM cimetidine (OATs); read-out: P (efflux ratio PappBA/PappAB)
Procedure: as §1, §2, §3, §4, §5

[7] = system: P-gp; settings: human, Caco-2, pH 7.4, with verapamil 100 μM, 25 μM morroniside; with verapamil 100 μM (P-gp inhibitor)
Procedure: as §1, §2, §3, §4, §5

[8] = 25 μM morroniside, with verapamil 100 μM
[9] = after 0.63 mg/mL CO (containing 25 μM morroniside) was added
[10] = with 50 μM sodium vanadate (Na+/K+ pump)

COC(=O)C1=CO[C@@H](O[C@@H]2O[C@H](CO)[C@@H](O)[C@H](O)[C@H]2O)[C@@H]2[C@H](C)O[C@@H](O)C[C@H]12 [morroniside, Morroniside]
efflux ratio at 180 min, 25 μM ([1]; Caco-2, pH 7.4, with apigenin 25 μM, with apigenin 25 μM (BCRP inhibitor), read-out: Efflux ratio P): 0.45 | Papp B→A at 180 min, 25 μM ([1]; Caco-2, pH 7.4, BL to AP, with apigenin 25 μM, read-out: PappBA (mean)): 2.78 ×10⁻⁶ cm/s | PappAB (mean) ([2]; 25 μM morroniside, Control): 1.9 ×10⁻⁶ cm/s | PappAB (mean) ([2]; 25 μM morroniside, with apigenin 25 μM): 6.12 ×10⁻⁶ cm/s | PappAB (mean) [2, 8]: 1.84 ×10⁻⁶ cm/s | PappBA (mean) ([2]; 25 μM morroniside, Control): 3.06 ×10⁻⁶ cm/s | PappBA (mean) ([2]; 25 μM morroniside, with benzbromarone 50 μM): 3.04 ×10⁻⁶ cm/s | PappBA (mean) [2, 8]: 2.93 ×10⁻⁶ cm/s | change of PappAB vs control ([2]; 25 μM morroniside, after addition of apigenin (25 μM), p < 0.05): increased significantly | decrease in the efflux ratio ([2]; 25 μM morroniside, after addition of apigenin (25 μM), vs control): 72.05% | PappAB (mean) ([2]; morroniside given as CO 0.63 mg/mL (containing 25 μM morroniside), in 1e-6 cm/s): 4.284 | PappBA (mean) ([2]; morroniside given as CO 0.63 mg/mL (containing 25 μM morroniside)): 2.11 ×10⁻⁶ cm/s | PappAB ([2]; Control (no inhibitor), influx transporter experiment): 1.90±0.5 ×10^-6cm/s | change of PappAB vs control [2, 9]: increased significantly | change of PappBA vs control [2, 9]: not significantly different | change of PappAB vs control ([2]; after MK 571 was added): increased | change of PappBA vs control ([2]; after MK 571 was added): no effect | change of AP to BL flux (PappAB) vs control ([2]; after indomethacin was added, p < 0.001): significant increase | change of PappAB and PappBA vs control ([2]; before and after addition of verapamil): did not change significantly | change of PappAB or PappBA vs control ([2]; cotreatment with 200 μM benzbromarone): did not alter | BCRP substrate status ([2]; from effect of apigenin (25 μM, BCRP inhibitor)): substrate of BCRP | MRP2 substrate status ([2]; from effect of indomethacin (MRP2 inhibitor) on AP to BL flux): substrate of MRP2 | P-gp involvement in transport ([2]; from effect of verapamil (P-gp inhibitor)): might not be involved | change of morroniside transport vs control ([2]; with 50 μM cimetidine): did not significantly increase or decrease | PappAB ([2]; with 50 μM cimetidine (OATs)): 1.82±0.5 ×10^-6cm/s | PappBA ([2]; with 50 μM cimetidine (OATs)): 3.1±0.7 ×10^-6cm/s | change of morroniside transport vs control ([2]; with 50 μM sodium vanadate): did not significantly increase or decrease | PappAB [2, 10]: 1.89±0.4 ×10^-6cm/s | PappBA [2, 10]: 3.11±0.7 ×10^-6cm/s | efflux ratio at 180 min, 25 μM ([3]; Caco-2, pH 7.4, with benzbromarone 50 μM, with benzbromarone 50 μM (MRP3 inhibitor), read-out: Efflux ratio P): 1.72 | Papp A→B at 180 min, 25 μM ([3]; Caco-2, pH 7.4, AP to BL, with benzbromarone 50 μM, read-out: PappAB (mean)): 1.77 ×10⁻⁶ cm/s | efflux ratio at 180 min, 25 μM ([4]; with MK 571 100 μM (MRP inhibitor), read-out: Efflux ratio P): 0.4 | Papp A→B at 180 min, 25 μM ([4]; AP to BL, with MK 571 100 μM, read-out: PappAB (mean)): 7.55 ×10⁻⁶ cm/s | Papp B→A at 180 min, 25 μM ([4]; BL to AP, with MK 571 100 μM, read-out: PappBA (mean)): 3.01 ×10⁻⁶ cm/s | efflux ratio at 180 min [5]: 1.65 | efflux ratio at 180 min [6]: 1.7 | efflux ratio at 180 min, 25 μM [7]: 1.59
